How the values were obtained:
Format in all cases: cell-based
cellules MT4 = assay: cytotoxicity on non-infected MT4 cells (MTT method)
Procedure: Les produits (AZT, AZT-5′ hémisuccinyl et AZT 5′-leucyl) à différentes concentrations ont été mis en présence de cellules MT4 (4 X 10⁴ cellules par puits de microtray) infectées ou non avec 100 CCID₅₀ de virus HIV-1 (souche HTLV-IIIB). La CCID₅₀ représente la quantité de virus à rajouter pour obtenir une infection de 50 % des cellules (dose infectieuse de cellules en culture 50).
Après cinq jours d'incubation à 37°C, le nombre de cellules vivantes a été déterminé par la méthode au MTT, basée sur la réduction par les cellules vivantes du 3′-(4, 5-diméthylthiazol-2-yl)-2,5-diphényltétrazoliumbromide, jaune, en formazan, bleu. L'activité antivirale et la cytotoxicité sont exprimées sous forme de ED₅₀ et de CD₅₀. La CD₅₀ représente la dose qui tue 50 % des cellules non infectées et la ED₅₀ représente la dose qui protège 50 % des cellules de l'infection virale.
En effet l'AZT entre en compétition avec la thymidine au niveau des enzymes de phosphorylation qui vont le transformer en AZT triphosphate (AZT TP) qui est la forme active du produit. Un excès de thymidine réduit donc très fortement l'activité de l'AZT, ce qui se traduit par une ED₅₀ plus élevée. Par conséquent, si le dérivé de l'AZT doit son activité à la libération d'AZT qui à son tour est phosphorylé en AZT TP, un excès de thymidine aura également pour effet d'élever la ED₅₀ du dérivé. La thymidine étant cytotoxique à la concentration utilisée, il est nécessaire de rajouter de la 2′déoxycytidine pour empêcher cette toxicité.
Les protocoles expérimentaux sont ceux décrits à l'exemple 9 3.1) et 9 3).

[1] = test system: lignées cellulaires continues; assay: in vitro toxicity on continuous cell lines (MTT method); settings: all cell lines tested, comparison with AZT; tableau 8 is an image
Text: Dans le but d'évaluer la toxicité du dérivé 5′hémisuccinyl de l'AZT, des expériences ont été réalisées sur différentes lignées cellulaires continues.
L'AZT et son dérivé 5′hémisuccinyl à différentes concentrations ont été mis en présence de cellules en phase de croissance. Le nombre de cellules vivantes a été déterminé par la méthode au MTT après 1, 2, 3 et 4 jours de culture. La cytotoxicité a été mesurée et est exprimée sous forme de CD₅₀.
Les lignées cellulaires continues utilisées sont les suivantes : - Cellules en suspension : [formula] - Cellules adhérentes : Hep-G2 : hépatocarcinome humain Hep-2 : carcinome épidermoïde humain
Les résultats sont repris au tableau 8.

[2] = test system: virus HIV-1 (souche HTLV-IIIB); assay: viral antigen assay in HIV-infected human peripheral blood lymphocytes; settings: day 14 of culture
Text: Les lymphocytes ont été extraits d'un concentré plaquettaire par séparation sur gradient de Ficoll et élimination des adhérentes. Après 3 jours de stimulation par la phytohémaglutinine, ils ont été transférés dans un milieu additionné d'interleukine-2 (IL-2) est infectés par le virus HIV-1 (souche HTLV-IIIB). L'AZT et son dérivé 5′ hémisuccinate à différentes concentrations ont été rajoutés aux cellules au moment de l'infection.
Trois jours après l'infection, le milieu a été remplacé par du milieu frais additionné d'IL-2, contenant les produits aux concentrations désirées pour la moitié des cellules, et ne contenant plus de produit pour l'autre moitié. Ensuite, le milieu des cellules a été remplacé à moitié par du milieu frais additionné d'IL-2, contenant ou non les produits aux concentrations désirées, tous les 3 à 4 jours.
La multiplication du virus a été suivie par dosage des antigènes viraux dans les surnageants de culture (Innotest HIV-Organon Teknika).

Q: How did the “toxicité (compared with AZT, in words)” value (cellules MT4; comparison with AZT) turn out when Cc1cn([C@H]2C[C@H](N=[N+]=[N-])[C@@H](COC(=O)CCC(=O)O)O2)c(=O)[nH]c1=O [AZT 5′hémisuccinyl, 5′-hémisuccinyl-3′-azido-3′-déoxythymidine] was run?
A: considérablement inférieure

Q: What about the CD₅₀ (cellules MT4; tableau 2, non-infected MT4 cells, 5 days at 37°C, dose that kills 50 % of cells) of the same molecule?
A: 196 µM

Q: And the CD₅₀ (cellules MT4; tableau 4, MT-4, with thymidine (250µM) + 2′déoxy-cytidine (500 µM))?
A: 362 µM

Q: And the CD₅₀ (cellules MT4; tableau 4, MT-4, without thymidine / 2′déoxycytidine)?
A: 295 µM

Q: What about the “toxicité sur lignées cellulaires continues (in words)” value [1] of the same molecule?
A: moins toxique que l'AZT

Q: What about the ED₅₀ ([2]; durée d'administration 3 jours) of the same molecule?
A: 0.078 µM

Q: And the ED₅₀ ([2]; durée d'administration 14 jours)?
A: 0.057 µM

Reference: EP0357495A2, “3'Azido-3'-deoxythymidine (AZT) derivatives active against the AIDS virus” (IRE-CELLTARG S.A., priority 1988, dated 1990)
